# Read-outs that look alike come from different tables or passages of the source.
# How the values were obtained:
# [1] = cited from earlier work
# [2] = test system: porcine model; details: pig, in vivo
# Method: Animals tested were of the porcine species from the breed Yorkshire Cross. The animals underwent surgery to place two (2) CVL catheters, 1 for infusion and 1 for plasma collection. Each animal received ˜1 L of lavage solution. The animals were allowed to recover and stabilize. Once the animals were awake and mobile, the animals were infused with 50 mcg/mL for 30 minutes.
# [3] = Plasma concentration of diclofenac after local lavage delivery to the lungs in a porcine model (LC/MS); format: in vivo, porcine (Yorkshire Cross)
# Description: Each animal received ˜1 L of lavage solution. The animals were allowed to recover and stabilize. […] Spectra were compared to the validated protocol and standard curve generated for the study.
structure (smiles),measurement,setting,value
O=C(O)Cc1ccccc1Nc1c(Cl)cccc1Cl [Diclofenac sodium],solubility in water (in words),[1]; water at 25° C.,sparingly soluble
"C[C@@H]1C[C@H]2[C@@H]3CCC4=CC(=O)C=C[C@]4(C)[C@@]3(F)[C@@H](O)C[C@]2(C)[C@@]1(O)C(=O)COP(=O)([O-])[O-].[Na+].[Na+] [Dexamethasone sodium phosphate, disodium; [2-[(8S,9R,10S,11S,13S,14S,16R, 17R)-9-fluoro-11,17-dihydroxy-10,13,16-trimethyl-3-oxo-6,7,8, 11, 12, 14, 15, 16-octahydrocyclopenta[a]phenanthren-17-yl]-2-oxoethyl] phosphate]",tolerability,[2],well tolerated
same,solubility in water,[1]; water,100 to 1000 mg/mL
same,solubility in water (in words),[1]; water,freely soluble
"O=C(O)Cc1ccccc1Nc1c(Cl)cccc1Cl [Diclofenac, 2-[2-(2,6-dichloroanilino)phenyl]acetic acid]",time of peak plasma concentration post-lung infusion,[3]; local lung delivery at 50 mcg/mL,5 min
same,plasma Cmax as percent of the plasma Cmax resulting from systemic administration,[3]; local vs systemic administration,less than 0.05%
same,Plasma Concentration (ng/mL) by Time (min): 5 min,"[3]; swine, local lung administration 50 mcg/mL, 5 min, animal 24P0133",3430 ng/mL
same,Plasma Concentration (ng/mL) by Time (min): 15 min,"[3]; swine, local lung administration 50 mcg/mL, 15 min, animal 24P0133",3050 ng/mL
same,Plasma Concentration (ng/mL) by Time (min): 30 min,"[3]; swine, local lung administration 50 mcg/mL, 30 min, animal 24P0133",2410 ng/mL
same,Plasma Concentration (ng/mL) by Time (min): 0 min,"[3]; swine, local lung administration 50 mcg/mL, ~1 L lavage solution, 0 min (baseline), animal 24P0133",BLQ
same,adverse events,[2],did not have any adverse events
same,clinical observations,[2],no abnormal clinical observations
same,lung tissue damage,[2],no signs of lung tissue damage
